{"source": "patent US20100087399A1", "about": "(priority 2007, published 2010)", "key": {"NF κB [1]": {"tested_on": "NF κB", "assay": "NF κB activation caused by chemotherapeutic agent in OVCAR-3 cells", "type": "cell-based, human", "design": "level of active NF κB (as percents of control) in the absence of CMA: concentration or dose not given beside the values", "conditions": "for level of active NF κB (as percents of control) in the presence of CMA: its salt or ester 1 × 10^−12 M", "procedure": "(§1) The level of active NF κB in cell extract was measured with StressXpress NF κB, p50 ELISA Kit (StressGen, cat. No EKS-445) and luminescent spectrophotometer SM 2203 (Solar, Belarus).\nThe experiments were performed as described in Example 1. The human ovarian carcinoma cell lines OVCAR-3 was used. The cells were incubated at 37° C. in RPMI 1640 medium supplemented with 10% embryonic calf serum. […] Corresponding chemical agent or the vehicle (control) was added to the culture medium simultaneously with CMA, its salt or ester (1×10^−12 M). The cells were separated by centrifugation. The level of active NF κB was assessed in nuclear lysate."}, "alpha interferon": {"tested_on": "alpha interferon", "assay": "Serum alpha interferon in SK-OV-3 tumor-bearing nude mice (ELISA)", "type": "in vivo", "conditions": "0 mg/kg CMA"}, "NF κB [2]": {"tested_on": "NF κB", "assay": "Level of active NF κB in cancer cells of ascitic fluid of SK-OV-3 tumor-bearing nude mice", "type": "in vivo", "conditions": "0 mg/kg CMA", "procedure": "as §1\nTo study the ability of different amounts of CMA to inhibit the NF κB activity, tumor growth and to increase the survival rate in combination with a chemotherapeutic agent, BALB/c female nude mice (6 to 8 weeks of age) were intraperitoneally injected with SK-OV-3 cells (1×10^7 cells/0.5 ml media/mouse). The all mice were divided into the several groups of animals (32 animals per group) which were treated with different doses of CMA, its salts or its ester. All mice were injected also ether with vehicle (diluent) or with chemotherapeutic agent or with or combinations of chemotherapeutic agent. Some groups were injected additionally with one or other aromatase inhibior, along with chemotherapeutic agent. Cisplatin (CP) was administered at dose 5 mg/kg intraperitoneally once weekly for the first 3 weeks; Doxorubicin (Dox) was given 8 mg/kg intravenously on days 0 and 7; Paclitaxel (Pcl) was injected intravenously at dose 10 mg/kg body weight thrice weekly, on alternate days for 4 weeks; 10 mg/kg/day. Toremifen was administered per os at dose 10 mg/kg/day in starch gel. Anastozole was injected subcutaneously with 5 μg of […] in 0.1 mL of PBS. CMA was administered once a day on each second day.\nAlso, the day of 50% survival rate was scored for other 16 animals in each group group. The serum alpha interferon (alpha IFN) level was measured 2 hours after first administration of CMA, its salts or it ester. Mouse IFN-alpha was measured in serum was detected (in pg/ml) using the enzyme-linked immunosorbent assay kit purchased from PBL Biomedical Laboratories (USA, Piscataway, N.J.)."}, "SK-OV-3 cells": {"tested_on": "SK-OV-3 cells", "assay": "Survival of nude mice intraperitoneally injected with SK-OV-3 cells", "type": "in vivo", "conditions": "0 mg/kg CMA"}, "ovarian cancer [3]": {"tested_on": "ovarian cancer", "conditions": "gamma-interferon added to cisplatinum+cyclophosphamide; cited from earlier work"}, "NF κB [4]": {"tested_on": "NF κB", "assay": "Level of active NF κB in primary human ovarian cancer cells from ascitic fluid (StressXpress NF κB p50 ELISA)", "type": "cell-based", "conditions": "8 hours"}, "ovarian cancer [5]": {"tested_on": "ovarian cancer", "conditions": "intraperitoneal alpha-interferon in combination with carboplatinum; cited from earlier work"}, "ovarian cancer [6]": {"tested_on": "ovarian cancer", "assay": "Clinical case reports of combined therapy of ovarian cancer (Examples 7-9)", "type": "in vivo, human", "conditions": "Example 7: stage III patient; 2 courses of cisplatin alone"}}, "note": "Values joined by “and” are separate entries in the source; they are usually repeats but may differ in a detail not shown here. Equal entries are not always repeated.", "data": [{"compound": "COc1cccc2c1C(=O)c1c(O)c3c(c(O)c1C2=O)C[C@@](O)(C(=O)CO)C[C@@H]3O[C@H]1C[C@H](N)[C@H](O)[C@H](C)O1", "note": "[Doxorubicin, doxorubicin]", "values": [{"measurement": "level of active NF κB (as percents of control) in the absence of CMA", "setting": "NF κB [1]; Doxorubicin alone", "value": "524% and 538% and 550% and 497% and 562% and 540% and 531%"}, {"measurement": "interferon level (mean)", "setting": "alpha interferon; Doxorubicin (Dox) alone", "value": "3 pg/mL and 4 pg/mL and 5 pg/mL"}, {"measurement": "level of NF kB (mean)", "setting": "NF κB [2]; Doxorubicin (Dox) alone", "value": "450 percent from the control and 470 percent from the control and 430 percent from the control"}, {"measurement": "day when 50% of animals in the group were still alive", "setting": "SK-OV-3 cells; Doxorubicin (Dox) alone", "value": "36 days and 37 days and 43 days"}]}, {"compound": "CC(=O)O[C@H]1C(=O)[C@@]2(C)[C@H]([C@H](OC(=O)c3ccccc3)[C@]3(O)C[C@H](OC(=O)[C@H](O)[C@@H](NC(=O)c4ccccc4)c4ccccc4)C(C)=C1C3(C)C)[C@]1(OC(C)=O)CO[C@@H]1C[C@@H]2O", "note": "[Paclitaxel, paclitaxel, reference compound]", "values": [{"measurement": "interferon level (mean)", "setting": "alpha interferon; Paclitaxel (Pcl) alone", "value": "8 pg/mL and 6 pg/mL and 5 pg/mL"}, {"measurement": "level of NF kB (mean)", "setting": "NF κB [2]; Paclitaxel (Pcl) alone", "value": "420 percent from the control and 411 percent from the control and 442 percent from the control"}, {"measurement": "day when 50% of animals in the group were still alive", "setting": "SK-OV-3 cells; Paclitaxel (Pcl) alone", "value": "41 days and 40 days and 38 days"}]}, {"compound": "gamma-interferon: cytokine immunomodulator with antiviral and antitumor activity", "values": [{"measurement": "number of patients who had no progression within the 3 year period", "setting": "ovarian cancer [3]", "value": 51, "unit": "%"}]}, {"compound": "CCCOC(=O)Cn1c2ccccc2c(=O)c2ccccc21", "note": "[PropCMA]", "values": [{"measurement": "active NF κB (in percents of control)", "setting": "NF κB [4]; 1 × 10^−10 M, Patient 1", "value": 32, "unit": "%/10"}, {"measurement": "active NF κB (in percents of control)", "setting": "NF κB [4]; 1 × 10^−10 M, Patient 2", "value": 31, "unit": "%/20"}, {"measurement": "active NF κB (in percents of control)", "setting": "NF κB [4]; 1 × 10^−10 M, Patient 3", "value": 36, "unit": "%/20"}, {"measurement": "active NF κB (in percents of control)", "setting": "NF κB [4]; 1 × 10^−12 M, Patient 1", "value": 68, "unit": "%/10"}, {"measurement": "active NF κB (in percents of control)", "setting": "NF κB [4]; 1 × 10^−12 M, Patient 2", "value": 59, "unit": "%/20"}, {"measurement": "active NF κB (in percents of control)", "setting": "NF κB [4]; 1 × 10^−12 M, Patient 3", "value": 64, "unit": "%/20"}, {"measurement": "active NF κB (in percents of control)", "setting": "NF κB [4]; 1 × 10^−13 M, Patient 1", "value": 89, "unit": "%/0"}, {"measurement": "active NF κB (in percents of control)", "setting": "NF κB [4]; 1 × 10^−13 M, Patient 2", "value": 91, "unit": "%/0"}, {"measurement": "active NF κB (in percents of control)", "setting": "NF κB [4]; 1 × 10^−13 M, Patient 3", "value": 81, "unit": "%/0"}, {"measurement": "level of active NF κB (as percents of control) in the presence of CMA", "setting": "NF κB [1]; 5-FU + CMA", "value": 86, "unit": "%"}, {"measurement": "level of active NF κB (as percents of control)", "setting": "NF κB [1]; CMA, its salt or ester 1 × 10^−12 M + Vechicle", "value": 84, "unit": "%"}, {"measurement": "level of active NF κB (as percents of control) in the presence of CMA", "setting": "NF κB [1]; Cisplatin + CMA", "value": 66, "unit": "%"}, {"measurement": "level of active NF κB (as percents of control) in the presence of CMA", "setting": "NF κB [1]; Cyclophosphamide + CMA", "value": 95, "unit": "%"}, {"measurement": "level of active NF κB (as percents of control) in the presence of CMA", "setting": "NF κB [1]; Doxorubicin + CMA", "value": 178, "unit": "%"}]}, {"compound": "alpha-interferon", "values": [{"measurement": "efficacy in respect of ovarian cancer", "setting": "ovarian cancer [5]", "value": "did not prove any efficacy"}]}, {"compound": "N.N.[Cl][Pt][Cl]", "note": "[Cisplatin, cisplatin]", "values": [{"measurement": "level of active NF κB (as percents of control) in the absence of CMA", "setting": "NF κB [1]; Cisplatin alone", "value": "117% and 121% and 120% and 119% and 118% and 125% and 122%"}, {"measurement": "interferon level (mean)", "setting": "alpha interferon; Cisplatin (CP) alone", "value": "4 pg/mL and 2 pg/mL and 3 pg/mL"}, {"measurement": "level of NF kB (mean)", "setting": "NF κB [2]; Cisplatin (CP) alone", "value": "380 percent from the control and 356 percent from the control and 420 percent from the control"}, {"measurement": "day when 50% of animals in the group were still alive", "setting": "SK-OV-3 cells; Cisplatin (CP) alone", "value": "34 days and 44 days and 42 days"}, {"measurement": "clinical outcome", "setting": "ovarian cancer [6]", "value": "No therapy effects were observed"}]}, {"compound": "O=P1(N(CCCl)CCCl)NCCCO1", "note": "(centres unmarked) [Cyclophosphamide, cyclophosphamide]", "values": [{"measurement": "level of active NF κB (as percents of control) in the absence of CMA", "setting": "NF κB [1]; Cyclophosphamide alone", "value": "221% and 217% and 210% and 214%"}]}]}
